Numbers after ± are expanded uncertainties.
Assays:
[1] = Boiling temperature at pressure P; settings: 101.3 kPa; Liquid; ebulliometry
[2] = 303.1 K; 101.33 kPa; Liquid; pycnometer
[3] = excess molar enthalpy (molar enthalpy of mixing); xn = mol fraction of the nth substance listed; settings: 298.15 K, 101.3 kPa, Liquid

Compound: CC(Cl)(Cl)Cl [1,1,1-trichloroethane]
- Boiling temperature at pressure P [1]: 74.20 ± 0.5 °C
- mass density [2]: 1320.94 ± 0.88 kg/m3

Compound: CC(Cl)(Cl)Cl [1,1,1-trichloroethane] + CN1CCCC1=O
- excess molar enthalpy ([3]; x1 = 0.0303): -0.0145 ± 0.0012 kcal/mol
- excess molar enthalpy ([3]; x1 = 0.0662): -0.0323 ± 0.00174 kcal/mol
- excess molar enthalpy ([3]; x1 = 0.1039): -0.0497 ± 0.00232 kcal/mol
- excess molar enthalpy ([3]; x1 = 0.1525): -0.0702 ± 0.00311 kcal/mol
- excess molar enthalpy ([3]; x1 = 0.2006): -0.0895 ± 0.00359 kcal/mol
- excess molar enthalpy ([3]; x1 = 0.2534): -0.106 ± 0.0043 kcal/mol
- excess molar enthalpy ([3]; x1 = 0.3046): -0.122 ± 0.00478 kcal/mol
- excess molar enthalpy ([3]; x1 = 0.3555): -0.133 ± 0.00526 kcal/mol
- excess molar enthalpy ([3]; x1 = 0.4018): -0.139 ± 0.00526 kcal/mol
- excess molar enthalpy ([3]; x1 = 0.4556): -0.139 ± 0.0055 kcal/mol
- excess molar enthalpy ([3]; x1 = 0.5054): -0.139 ± 0.00526 kcal/mol
- excess molar enthalpy ([3]; x1 = 0.5576): -0.137 ± 0.00526 kcal/mol
- excess molar enthalpy ([3]; x1 = 0.6104): -0.141 ± 0.0055 kcal/mol
- excess molar enthalpy ([3]; x1 = 0.6634): -0.141 ± 0.0055 kcal/mol
- excess molar enthalpy ([3]; x1 = 0.7153): -0.135 ± 0.00526 kcal/mol
- excess molar enthalpy ([3]; x1 = 0.7694): -0.122 ± 0.00478 kcal/mol
- excess molar enthalpy ([3]; x1 = 0.8172): -0.117 ± 0.00454 kcal/mol
- excess molar enthalpy ([3]; x1 = 0.8714): -0.103 ± 0.00406 kcal/mol
- excess molar enthalpy ([3]; x1 = 0.9228): -0.0783 ± 0.00335 kcal/mol
- excess molar enthalpy ([3]; x1 = 0.9649): -0.0437 ± 0.0021 kcal/mol

Compound: ClC(Cl)C(Cl)Cl [1,1,2,2-tetrachloroethane]
- Boiling temperature at pressure P [1]: 146.20 ± 0.5 °C
- mass density [2]: 1578.58 ± 1.1 kg/m3

Compound: ClC(Cl)C(Cl)Cl [1,1,2,2-tetrachloroethane] + CN1CCCC1=O
- excess molar enthalpy ([3]; x1 = 0.0331): -0.113 ± 0.00454 kcal/mol
- excess molar enthalpy ([3]; x1 = 0.0582): -0.205 ± 0.00765 kcal/mol
- excess molar enthalpy ([3]; x1 = 0.0765): -0.256 ± 0.00956 kcal/mol
- excess molar enthalpy ([3]; x1 = 0.1279): -0.426 ± 0.0153 kcal/mol
- excess molar enthalpy ([3]; x1 = 0.1292): -0.413 ± 0.0148 kcal/mol
- excess molar enthalpy ([3]; x1 = 0.1796): -0.555 ± 0.0198 kcal/mol
- excess molar enthalpy ([3]; x1 = 0.2318): -0.704 ± 0.0239 kcal/mol
- excess molar enthalpy ([3]; x1 = 0.2344): -0.695 ± 0.0239 kcal/mol
- excess molar enthalpy ([3]; x1 = 0.288): -0.838 ± 0.0287 kcal/mol
- excess molar enthalpy ([3]; x1 = 0.3219): -0.893 ± 0.0311 kcal/mol
- excess molar enthalpy ([3]; x1 = 0.34): -0.963 ± 0.0335 kcal/mol
- excess molar enthalpy ([3]; x1 = 0.4028): -1.01 ± 0.0359 kcal/mol
- excess molar enthalpy ([3]; x1 = 0.4675): -1.09 ± 0.0382 kcal/mol
- excess molar enthalpy ([3]; x1 = 0.5226): -1.14 ± 0.0406 kcal/mol
- excess molar enthalpy ([3]; x1 = 0.5688): -1.16 ± 0.0406 kcal/mol
- excess molar enthalpy ([3]; x1 = 0.5953): -1.16 ± 0.0406 kcal/mol
- excess molar enthalpy ([3]; x1 = 0.6265): -1.09 ± 0.0382 kcal/mol
- excess molar enthalpy ([3]; x1 = 0.6815): -1 ± 0.0359 kcal/mol
- excess molar enthalpy ([3]; x1 = 0.7384): -0.89 ± 0.0311 kcal/mol
- excess molar enthalpy ([3]; x1 = 0.7933): -0.742 ± 0.0263 kcal/mol
- excess molar enthalpy ([3]; x1 = 0.8536): -0.533 ± 0.0191 kcal/mol
- excess molar enthalpy ([3]; x1 = 0.9099): -0.354 ± 0.0129 kcal/mol
- excess molar enthalpy ([3]; x1 = 0.9574): -0.179 ± 0.00669 kcal/mol

Compound: ClCCCl [1,2-dichloroethane]
- Boiling temperature at pressure P [1]: 83.80 ± 0.5 °C
- mass density [2]: 1238.3 ± 0.8 kg/m3
